Experimental data: patent publication US20120034613A1, “Apparatus and Method for Testing Relationships Between Gene Expression and Physical Appearance of Skin” (NSE Products, Inc., priority 2010, published 2012)

System: EpidermFT™ Skin Model (EFT-400) full thickness skin cultures
Experiment: Affymetrix GeneChip HG U133 Plus 2.0 microarray global gene expression, agent-exposed vs untreated skin cultures
Assay type: cell-based, human
Conditions: Salicin 0.5% vs Untreated Control, 24 hr treatment

Compound: OCc1ccccc1O[C@@H]1O[C@H](CO)[C@@H](O)[C@H](O)[C@H]1O [Salicin, 2-(Hydroxymethyl)phenyl β-D-glucospyranoside]
- Direction UGCGL2 (218801_at): up
- Direction UST (205139_s_at): up
- Direction WIPI1 (203827_at): up
- Direction XPO1 (235927_at): up
- Direction ZFAND5 (217649_at): up
- Direction ZFP36L1 (211965_at): up
- Direction ZNF281 (228785_at): up
- Direction ZNF331 (219228_at): up
- Direction ZNF697 (227080_at): up
- Fold change ABHD2 (205566_at): 2.508
- Fold change ABHD2 (221815_at): 2.348
- Fold change ABHD2 (225337_at): 2.704
- Fold change ADAMTS5 (235368_at): 2.751
- Fold change ADAMTS6 (1570351_at): 2.37
- Fold change ADCYAP1 (230237_at): 2.573
- Fold change AHI1 (220841_s_at): 2.322
- Fold change AHI1 (221569_at): 2.667
- Fold change AKR1C1 (1562102_at): 2.331
- Fold change AKT3 (212607_at): 2.622
- Fold change AKT3 (212609_s_at): 2.3
- Fold change AKT3 (222880_at): 2.365
- Fold change AKT3 (224229_s_at): 2.751
- Fold change ALG9 (228817_at): 2.321
- Fold change ANKRD28 (213035_at): 2.361
- Fold change ANKRD28 (229307_at): 2.421
- Fold change ARMC8 (1555281_x_at): 2.299
- Fold change ARNT2 (202986_at): 2.361
- Fold change ATF3 (1554980_a_at): 2.623
- Fold change ATP2A3 (207522_s_at): 2.434
- Fold change BAG2 (209406_at): 2.774
- Fold change BCL2L11 (1558143_a_at): 2.347
- Fold change BNC2 (220272_at): 2.471
- Fold change BNC2 (235723_at): 2.707
- Fold change C1GALT1C1 (238989_at): 2.327
- Fold change C1orf67 /// DNAH14 (242283_at): 2.614
- Fold change C13orf33 (227058_at): 2.621
- Fold change CABLES1 (225532_at): 2.633
- Fold change CARD16 (1552701_a_at): 2.363
- Fold change CCR1 (205098_at): 2.474
- Fold change CDCP1 (1554110_at): 2.44
- Fold change CDR2 (209501_at): 2.488
- Fold change CHST2 (203921_at): 2.332
- Fold change CLGN (205830_at): 2.486
- Fold change CNOT3 (203239_s_at): 2.466
- Fold change CPM (241765_at): 2.574
- Fold change CPM (243403_x_at): 2.436
- Fold change CREM (207630_s_at): 2.309
- Fold change CUL4B (202213_s_at): 2.538
- Fold change CXCL1 (204470_at): 2.363
- Fold change CYP7B1 (207386_at): 2.782
- Fold change CYR61 (210764_s_at): 2.692
- Fold change DENND3 (212975_at): 2.471
- Fold change DENND5B (228551_at): 2.474
- Fold change DGKI (206806_at): 2.74
- Fold change DNAJB9 (202842_s_at): 2.613
- Fold change DNAJB9 (1554462_a_at): 2.666
- Fold change DNAJC10 (221781_s_at): 2.508
- Fold change DNAJC10 (221782_at): 2.553
- Fold change DOCK4 (205003_at): 2.383
- Fold change DOCK5 (230206_at): 2.653
- Fold change DOCK5 (230263_s_at): 2.362
- Fold change DOK6 (236290_at): 2.316
- Fold change DSEL (232825_s_at): 2.821
- Fold change DUSP4 (204015_s_at): 2.668
- Fold change DZIP1 (204557_s_at): 2.653
- Fold change EIF2AK3 (218696_at): 2.305
- Fold change ELL2 (214446_at): 2.557
- Fold change ELTD1 (219134_at): 2.637
- Fold change ENPP1 (205066_s_at): 2.414
- Fold change ENTPD7 (220153_at): 2.395
- Fold change EPS8 (202609_at): 2.334
- Fold change EREG (205767_at): 2.487
- Fold change ERO1LB (220012_at): 2.376
- Fold change FADS1 (208963_x_at): 2.411
- Fold change FADS1 (208964_s_at): 2.638
- Fold change FAM20A (226804_at): 2.437
- Fold change FAM107B (223058_at): 2.544
- Fold change FAM107B (223059_s_at): 2.476
- Fold change FAR2 (220615_s_at): 2.497
- Fold change FAT4 (219427_at): 2.428
- Fold change FEM1B (212374_at): 2.726
- Fold change FGF7 (1555103_s_at): 2.35
- Fold change FGF7 /// KGFLP1 /// KGFLP2 (1554741_s_at): 2.506
- Fold change FHOD3 (218980_at): 2.607
- Fold change FKBP11 (219117_s_at): 2.431
- Fold change FKBP11 (219118_at): 2.422
- Fold change FMN2 (1555471_a_at): 2.355
- Fold change FN1 (214701_s_at): 2.436
- Fold change FN1 (214702_at): 2.71
- Fold change FOXJ3 (217310_s_at): 2.327
- Fold change FPR1 (205119_s_at): 2.402
- Fold change GAS1 (204457_s_at): 2.783
- Fold change GCLM (203925_at): 2.646
- Fold change GCLM (236140_at): 2.667
- Fold change GEM (204472_at): 2.52
- Fold change GFPT1 (226886_at): 2.512
- Fold change GFPT2 (205100_at): 2.3
- Fold change GLIPR1 (204222_s_at): 2.366
- Fold change GRAMD1A (224807_at): 2.363
- Fold change GRAMD1B (212906_at): 2.401
- Fold change GUCY1A3 (221942_s_at): 2.594
- Fold change GUCY1A3 (229530_at): 2.498
- Fold change HERC3 (1554290_at): 2.372
- Fold change HEY1 (44783_s_at): 2.372
- Fold change HIST1H2AB /// HIST1H2AE (214469_at): 2.52
- Fold change HIST1H2AD /// HIST1H3A /// HIST1H3B /// HIST1H3C /// HIST1H3D /// HIST1H3E /// HIST1H3F /// HIST1H3G /// HIST1H3H /// HIST1H3I /// HIST1H3J (214472_at): 2.608
- Fold change HIST2H2AA3 /// HIST2H2AA4 (214290_s_at): 2.42
- Fold change HK2 (222305_at): 2.329
- Fold change HOXB2 (205453_at): 2.404
- Fold change HSD17B2 (204818_at): 2.766
- Fold change HSPA13 (202557_at): 2.665
- Fold change ID2 /// ID2B (213931_at): 2.802
- Fold change IGFBP5 (211958_at): 2.712
